# Data as given in patent publication US12479895B2, “C-terminal CDNF and MANF fragments, pharmaceutical compositions comprising same and uses thereof” (MyNeuroCure Oy, priority 2018, dated 2025).
# B1: glial cell line-derived neurotrophic factor (protein, UniProt P39905 78-211, looked up)
# Glial cell line-derived …: SPDKQMAVLPRRERNRQAAAANPENSRGKGRRGQRGKNRGCVLTAIHLNVTDLGLGYETKEELIFRYCSGSCDAAETTYDKILKNLSRNRRLVSDKVGQACCRPIAFDDDLSFLDDNLVYHILRKHSAKRCGCI
# notes: Positive control neurotrophic factor, 100 ng/ml
# Experiments:
# dopamine neurons = assay: Survival of TH-positive dopamine neurons in dissociated midbrain floor cultures; assay type: cell-based, mouse; settings: 5 days; for protection of dopaminergic neurons in culture (result in words): added to the culture medium, TH-positive neurons counted
# Protocol: To study the dopamine neurons (Yu et al., 2008; Yu and Arumae, 2008), the midbrain floors were dissected from the ventral mesencephali of 13.5-d-old NMRI strain mouse embryos. Tissues were incubated with 0.5% trypsin (ICN Biomedical), then mechanically dissociated using a large fire-polished Pasteur pipette. The neurons were grown on the poly-L-ornithine-coated (Sigma) 96-well culture plates in DMEM/F12 medium (Invitrogen) containing N2 supplement (Invitrogen) in the presence or absence of GDNF (100 ng/ml) or with CDNF, MANF, C-CDNF and C-MANF polypeptides at different concentrations for five days. Same amount of the neurons were plated to each well at the beginning of the experiments. The cultures without added neurotrophic factors served as the negative control. As the midbrain cultures contain several neuronal types, the cultures were fixed and immunostained with the antibodies to tyrosine hydroxylase (TH) (Millipore), a specific marker for the dopaminergic neurons. Images of each well were scanned by CellInsight™ and immunopositive neurons were counted by CellProfiler and CellProfiler analyst software. Data are expressed as a percentage of GDNF-maintained TH-positive neurons. All experiments were repeated at least three times on the independent cultures. The results were expressed as the mean the SEM and were tested for the significance by either one-way ANOVA and Tukey's post hoc test or by two-tailed Student's t-test. The null hypothesis was rejected at P≤0.05.
# ER stressed SCG neurons = assay: Survival of tunicamycin-treated (ER stressed) SCG sympathetic neurons after microinjection; assay type: cell-based, mice; settings: tunicamycin 2 μM; for survived neurons as % compared to neurons grown in the presence of NGF: microinjected into cytoplasm, CDNF (400); for rescue of ER stressed SCG neurons (result in words): protein or peptide microinjected into the cytoplasm, living fluorescent neurons counted after 3 days
# Protocol: Non-neuronal cells were removed by extensive preplating. Almost pure neurons were cultured in polyornithine/laminin (Sigma)-coated 35-mm plastic dishes in the small-size standard microislands in the Neurobasal medium and B27 supplement (Invitrogen/Gibco) in the presence of 30 ng/ml mouse nerve growth factor (NGF) (Promega) for 5-6 days. NGF was deprived by extensive washing and addition of the function-blocking anti-NGF antibodies (Roche). The neurons were pressure-microinjected with special neuronal microinjection equipment (Hellman et al., 2011; Hamner et al., 2001; Lindholm et al., 2002; Sun et al., 2001; Yu et al., 2003)(Sun et al., 2001; Sun et al., 2003). For the survival assay, all neurons on the microislands were counted in the beginning (initial number) and the end (three days) of the experiment and expressed as % of initial.
# Microinjection of the sympathetic neurons was performed as described earlier (Yu, L. Y., Jokitalo, E., Sun, Y. F., Mehlen, P., Lindholm, D., Saarma, M., and Arumae, U. (2003) J Cell Biol. 163, 987-997). Plasmids for CDNF have been described earlier. Briefly, newborn mouse SCG neurons were grown with NGF (Promega) for 5-6 days then the nuclei were microinjected with the expression plasmids for full-length (FL)-CDNF and C-CDNF together with a reporter plasmid for enhanced green fluorescent protein (EGFP), using vector concentration of 10 ng/ul in each experiment. […] For protein microinjection, recombinant full length (FL)-CDNF, C-CDNF proteins in PBS at 200 ng/ul were microinjected directly into the cytoplasm together with fluorescent reporter Dextran Texas Red (MW 70000 Da) (Invitrogen, Molecular Probes) that facilitates identification of the successfully injected neurons. Next day tunicamycin (2 μM) was added, and after 3 days the living fluorescent neurons were counted. Living fluorescent (EGFP-expressing or Dextran Texas Red-containing) neurons were “blindly” counted three days later and expressed as percent of initial living fluorescent neurons counted 2-3 hours after microinjection. The experiments with plasmids were repeated on independent cultures 5 times for plasmid experiment, whereas four independent protein injection experiments were performed. On average, 50-80 neurons were successfully injected per experimental group. The results were expressed as the mean±the SEM. Data of each experimental group was compared with control plasmid PCR3.1 (vector) or PBS (in the protein injection experiments) by one-way ANOVA and post hoc Dunnett's t test. The null hypothesis was rejected at p<0.05.
# [1] = Table 3B (FIG. 17), AVG, 1 ng/ml
# [2] = Table 3B (FIG. 17), AVG, 10 ng/ml
# [3] = Table 3B (FIG. 17), AVG, 100 ng/ml
# [4] = Table 3B (FIG. 17), AVG, 1000 ng/ml
# [5] = Table 1B (FIG. 16), exp1, counted after 3 days
# [6] = Table 1B (FIG. 16), exp2, counted after 3 days
# [7] = Table 1B (FIG. 16), exp3, counted after 3 days
Molecule,survived neurons as % compared to neurons grown in the presence of GDNF (dopamine neurons; [1]) [% GDNF],survived neurons as % compared to neurons grown in the presence of GDNF (dopamine neurons; [2]) [% GDNF],survived neurons as % compared to neurons grown in the presence of GDNF (dopamine neurons; [3]) [% GDNF],survived neurons as % compared to neurons grown in the presence of GDNF (dopamine neurons; [4]) [% GDNF],survived neurons as % compared to neurons grown in the presence of NGF (ER stressed SCG neurons; [5]) [% NGF],survived neurons as % compared to neurons grown in the presence of NGF (ER stressed SCG neurons; [6]) [% NGF],survived neurons as % compared to neurons grown in the presence of NGF (ER stressed SCG neurons; [7]) [% NGF],protection of dopaminergic neurons in culture (result in words) (dopamine neurons),rescue of ER stressed SCG neurons (result in words) (ER stressed SCG neurons),"survived neurons as % compared to neurons grown in the presence of NGF (ER stressed SCG neurons; Table 1A (FIG. 14), AVG of exp1-2) [% NGF]","survived neurons as % compared to neurons grown in the presence of NGF (ER stressed SCG neurons; Table 1A (FIG. 14), exp1, counted after 3 days) [% NGF]","survived neurons as % compared to neurons grown in the presence of NGF (ER stressed SCG neurons; Table 1A (FIG. 14), exp2, counted after 3 days) [% NGF]","rescue of ER stressed SCG sympathetic neurons (result in words) (ER stressed SCG neurons; expressed from microinjected plasmids, living fluorescent neurons counted after three days)","survived neurons as % compared to neurons grown in the presence of GDNF (dopamine neurons; Table 3A (FIG. 15), AVG, 100 ng/ml) [% GDNF]","survived neurons as % compared to neurons grown in the presence of GDNF (dopamine neurons; Table 3A (FIG. 15), exp1, 100 ng/ml) [% GDNF]","survived neurons as % compared to neurons grown in the presence of GDNF (dopamine neurons; Table 3A (FIG. 15), exp2, 100 ng/ml) [% GDNF]","survived neurons as % compared to neurons grown in the presence of GDNF (dopamine neurons; Table 3A (FIG. 15), exp3, 100 ng/ml) [% GDNF]"
TLDLASVDLRKMRVAELKQILHSWGEECRASAEKTDYVNLIQELAPKYA (C-CDNF peptide with single amino acid substitution) [pep10],54.25,63.09,68.97,69.16,42.46,45.16,40.35,–,–,–,–,–,–,–,–,–,–
TLDLASVDLRKMRVAELKQILHSWGEECRACAEKTDYVNLIQEPAPKYA (Mutated C-CDNF peptide) [pep13],71.07,86.81,88.07,85.36,77.41,72.46,80.39,best protective effect,rescue,–,–,–,–,–,–,–,–
RVAELKQILHSWGEECRACAEKTDYVNLIQELAPKYA (listed as Homo sapiens) [pep8],64.02,75.69,85.95,81.43,77.94,65.57,73.91,best protective effect,rescue,–,–,–,–,–,–,–,–
TLDLASVDLRKMRVAELKQILHSWGEESRACAEKTDYVNLIQELAPKYA (C-CDNF peptide with single amino acid substitution) [pep9],62.74,69.29,71.62,67.12,41.23,44.00,44.44,–,–,–,–,–,–,–,–,–,–
cerebral dopamine neurotrophic factor [CDNF],–,–,–,–,86.00,71.23,83.33,–,rescue,88.04,85.71,90.36,rescue,–,–,–,–
B1,–,–,100,–,–,–,–,–,–,–,–,–,–,100,100,100,100
